Each structure is given as a SMILES string.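 Tested at 5 concentrations; 48 h exposure; 96-well plates; endpoints linearly interpolated, else capped at highest concentration. Here, GI50 denotes the concentration required for 50% inhibition of growth. TGI denotes the concentration required for complete inhibition of growth.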 A value given as a limit tells only on which side of the number the result lay.

From PubChem BioAssay (NCI) come the findings set out here.

Among the test systems are EKVX NSCLC; SNB-19 CNS; OVCAR-5 ovarian; HL-60(TB) leukemia; SF-268 CNS; U251 CNS; UACC-62 melanoma; T-47D breast; HT29 colon; NCI-H460 lung.
Common to all, as to assay: inhibition of tumour cell growth, NCI panel, 48 h

As for `COc1cc(-c2n/c(=C\c3c(O)[nH]c4ccc(Cl)cc34)cc3c2=Nc2ccccc2-3)ccc1F`, the GI50 in the assay on EKVX NSCLC was 4.12 µM; with SNB-19 CNS it was 1.87 µM; with OVCAR-5 ovarian it was 3.9 µM; in the assay with HL-60(TB) leukemia, 10.9 µM; in the assay on SF-268 CNS, 2.05 µM; with U251 CNS, 1.58 µM. For the same molecule, the results for the GI50 with UACC-62 melanoma and in the assay with T-47D breast were 1.65 µM and 1.5 µM, respectively. Moreover, the TGI in the assay on EKVX NSCLC amounted to 27.2 µM; in the assay with SNB-19 CNS, 4.11 µM; in the assay on OVCAR-5 ovarian, 13.3 µM; with HL-60(TB) leukemia it was 34.7 µM; in the assay on SF-268 CNS it was 4.65 µM; in the assay on U251 CNS, 3.06 µM. The TGI in the assay with UACC-62 melanoma came out at 3.2 µM; in the assay with T-47D breast it was 3.5 µM.
As for `COC(=O)C1CCc2sc3ncnc(Nc4cn[nH]c4C(=O)Nc4ccc(CN5CCN(C)CC5)cc4)c3c21` (centres undefined), the GI50 in the assay with EKVX NSCLC is 0.838 µM; in the assay with SNB-19 CNS, 0.712 µM; in the assay with HL-60(TB) leukemia, 1.68 µM; in the assay with HT29 colon, 0.619 µM; in the assay on SF-268 CNS, 0.666 µM; with NCI-H460 lung, 0.331 µM. Moreover, the GI50 is 1.36 µM in the assay on UACC-62 melanoma and 0.957 µM in the assay on T-47D breast. Besides, the TGI with EKVX NSCLC was 14 µM; in the assay on SNB-19 CNS, more than 100 µM; in the assay on HL-60(TB) leukemia, 3.87 µM; with HT29 colon it was 2.91 µM; in the assay with SF-268 CNS it was 2.63 µM; in the assay on NCI-H460 lung it was 1.49 µM. Further, the TGI in the assay with UACC-62 melanoma turned out to be 6.59 µM; in the assay on T-47D breast, 11.6 µM.
With `NC(=O)c1csc(C2(O)COC(CO)C2O)n1` (centres undefined), the TGI with EKVX NSCLC, with SNB-19 CNS, in the assay with OVCAR-5 ovarian, in the assay with HT29 colon, in the assay on SF-268 CNS and in the assay with U251 CNS was more than 100 µM in each case. Further, the TGI in the assay on NCI-H460 lung, in the assay with UACC-62 melanoma and with T-47D breast was more than 100 µM each time.
On to `COc1cccc2c1C(=O)c1c(O)c3c(c(O)c1C2=O)C[C@H](O)C[C@@H]3OC1CC(N)C(O)C(C)O1` (some centres undefined), for which the TGI in the assay on EKVX NSCLC came out at 20.8 µM; with SNB-19 CNS, 15.2 µM; in the assay with OVCAR-5 ovarian, 11.8 µM; in the assay on HT29 colon it was 14.1 µM; with SF-268 CNS, 10.6 µM; in the assay on NCI-H460 lung, 13.7 µM. The TGI in the assay with UACC-62 melanoma stood at 1.82 µM; in the assay with T-47D breast, 15.3 µM.
Regarding `CC[C@H](Nc1nc(C)nc(N)c1C#N)c1nc2cccc(NCc3ccc(C(=O)NO)cc3)c2c(=O)n1-c1ccccc1`, the GI50 with EKVX NSCLC is 1.56 µM; in the assay on SNB-19 CNS it was 1.63 µM; in the assay with OVCAR-5 ovarian, 1.51 µM; in the assay on HT29 colon, 1.76 µM; with SF-268 CNS it was 1.63 µM; in the assay on U251 CNS it was 1.48 µM. Also, the figures for the GI50 in the assay on NCI-H460 lung, in the assay on UACC-62 melanoma and in the assay on T-47D breast were 1.79 µM, 1.55 µM and 1.86 µM, respectively. Further, the TGI with EKVX NSCLC stood at 3.21 µM; in the assay on SNB-19 CNS, 3.97 µM; with OVCAR-5 ovarian it was 3.32 µM; in the assay on HT29 colon, 4.45 µM; in the assay on SF-268 CNS, 3.53 µM; in the assay with U251 CNS, 2.97 µM. Also, the TGI with NCI-H460 lung came out at 3.78 µM; in the assay on UACC-62 melanoma, 3.17 µM; in the assay on T-47D breast it was 7.06 µM.
On to `C=C1N(C=O)C(C)(C)N(O)C1(C)C`, for which the TGI in the assay with EKVX NSCLC, in the assay on SNB-19 CNS, in the assay on OVCAR-5 ovarian, with HT29 colon, with SF-268 CNS and with U251 CNS was more than 100 µM throughout. Further, the TGI in the assay with NCI-H460 lung, in the assay on UACC-62 melanoma and in the assay on T-47D breast was more than 100 µM throughout.
Turning to `COc1cc(C(=O)Oc2ccc3c(c2)OCO3)cc(OC)c1OC`, the TGI in the assay on SNB-19 CNS, in the assay with OVCAR-5 ovarian, with HL-60(TB) leukemia, in the assay with HT29 colon, in the assay with SF-268 CNS and with U251 CNS was more than 100 µM in each case. Further, the TGI with NCI-H460 lung, in the assay with UACC-62 melanoma and in the assay on T-47D breast was more than 100 µM each time.
On to `Cc1c(CN2CCN(C)CC2)c(CN2CCN(C)CC2)c(C)n1-c1ccc(Cl)cc1`, for which the TGI in the assay on EKVX NSCLC is more than 100 µM; in the assay on SNB-19 CNS, more than 100 µM; with OVCAR-5 ovarian, more than 100 µM; with HT29 colon it was 42.7 µM; with SF-268 CNS, more than 100 µM; with U251 CNS, more than 100 µM. Also, the TGI with NCI-H460 lung is more than 100 µM; in the assay on UACC-62 melanoma, 33.9 µM; with T-47D breast, 46.4 µM.
`CO[C@H]1SC[C@H](OC(C)=O)[C@H](OC(C)=O)[C@H]1OC(C)=O`: the TGI with EKVX NSCLC, in the assay on SNB-19 CNS, in the assay with HL-60(TB) leukemia, in the assay with HT29 colon, in the assay with SF-268 CNS and in the assay with U251 CNS was more than 100 µM in each case. For the same molecule, the TGI in the assay with NCI-H460 lung, with UACC-62 melanoma and in the assay on T-47D breast was more than 100 µM in each case.
In the case of `O=C1C=CC(=O)N1n1c(-c2ccccc2)n[nH]c1=O`, the TGI in the assay with EKVX NSCLC, with OVCAR-5 ovarian, with HL-60(TB) leukemia, in the assay on HT29 colon, in the assay on SF-268 CNS and in the assay with U251 CNS was more than 100 µM each time. Moreover, the TGI in the assay with NCI-H460 lung, in the assay on UACC-62 melanoma and with T-47D breast was more than 100 µM each time.
Turning to `O=c1cc(-c2ccncc2)[nH]c2cc3c(cc12)OCO3`, the TGI with EKVX NSCLC, in the assay on SNB-19 CNS, in the assay with OVCAR-5 ovarian, with HT29 colon, in the assay on SF-268 CNS and in the assay with U251 CNS was more than 100 µM throughout. The TGI in the assay on NCI-H460 lung, in the assay on UACC-62 melanoma and in the assay with T-47D breast was more than 100 µM throughout.
As for `Cc1ccc2c(c1)-c1c(C#N)c(N)nc(-c3ccc(Cl)cc3)c1CCS2(=O)=O`, the TGI with EKVX NSCLC, with SNB-19 CNS, in the assay with OVCAR-5 ovarian, in the assay with HT29 colon, in the assay with SF-268 CNS and in the assay with U251 CNS was more than 100 µM in each case. Further, the TGI in the assay on NCI-H460 lung, in the assay with UACC-62 melanoma and in the assay on T-47D breast was more than 100 µM each time.
Take `Cc1cc2ncn(C3CCCCO3)c2cc1C` (centres undefined): the TGI in the assay with EKVX NSCLC, with SNB-19 CNS, in the assay on OVCAR-5 ovarian, in the assay on HL-60(TB) leukemia, in the assay on HT29 colon and in the assay on SF-268 CNS was more than 100 µM throughout. In addition, the TGI in the assay on U251 CNS, in the assay with UACC-62 melanoma and in the assay with T-47D breast was more than 100 µM each time.
